# According to patent US20230256011A1, “Chlorite In the Treatment of Acute Respiratory Distress Syndrome” (The Regents of the University of California, priority 2020, published 2023):
# Values joined by “and” are separate entries in the source; they are usually repeats but may differ in a detail not shown here. Identical values can stand only once.
# Assays:
# [1] = system: Normal blood macrophages; conditions: 150uM, three days, three donors
# [2] = system: Blood derived macrophages from ALS patients; conditions: 300uM overnight, two ALS patients, FIG. 3
# Excerpt: The maj or focus was on regulation of inflammation as compared to normal macrophage functional genes. […] Note that by “housekeeping genes” is meant B2M, HPRT1, RPL13A, GAPDH, and ACTB.
# [3] = system: blood derived macrophages (CD16 on CD14 cells); conditions: +30 µM, +100 µM, +300 µM, three days, 5 donors, FIG. 2
# Protocol: Cells were then processed for flow cytometry (5 separate donors) and CD14 cell co-expression of CD16 (macrophage activation marker) was scored.
# Percentage of control median CD16 was calculated for all 5 donors +/- SD.
# [4] = system: ALS blood monocytes; conditions: 300uM, 3 days, FIG. 4
# Protocol: Culture supernatants were harvested and cytokine levels were determined by ELISA. […] Referring to the Y-axis, percentage of reduction is the level of factor in treated as compared to untreated macrophages. N is 8-18 in several experiments.
# [5] = system: COVID19 blood monocytes
# [6] = system: ALS blood monocytes; conditions: 3 days
# Protocol: Culture supernatants are harvested and osteopontin levels (OPN) are determined by ELISA.
# Repeated with 3 normal and 5 ALS donors.
substance,measurement,setting,value
sodium chlorite [sodium chlorite formulation],CCR3 gene down regulated,[1],3 X
same,CXCL9 gene down regulated,[1],14 X
same,SERPINB2 gene upregulated,[1],4 X
same,CCL16 gene expression,[2],clear down regulation
same,CCR2 gene expression,[2],clear down regulation
same,CXCL9 gene expression,[2],clear down regulation
same,CXCL10 gene expression,[2],clear down regulation
same,IL-18 gene expression (inflammasome activation),[2],clear down regulation
same,TLR4 gene expression,[2],clear down regulation
same,CD16 expression on CD14+ (monocyte lineage) cells,[3],dose dependent down regulation of CD16
same,"production of secreted inflammatory factors (IL-1Ra, CD163, CD14, OPN)",[4],inhibits production
same,"Chlorite % Reduction of factor in vitro, MIG",[5],88% and 70%
same,"Chlorite % reduction of factor in vitro, IP10",[5],95% and 80%
same,down regulation of HGF,[5],greater than 50%
same,down regulation of IL1Ra,[5],greater than 50%
same,down regulation of IP10 (CXCL10),[5],greater than 50%
same,down regulation of MIG (CXCL9),[5],greater than 50%
same,down regulation of OPN,[5],greater than 50%
same,down regulation of sCD163 (CD163),[5],greater than 50%
same,"production of COVID-19 patient macrophage produced disease factors (IL-1Ra, IP-10, HGF, MIG, sCD163, OPN) as compared to controls",[5],downregulated production
same,production of OPN from ALS patient macrophages (ELISA),"[6]; 150uM, FIG. 6 panel A",inhibit production of OPN
same,SPP1 (osteopontin) gene expression,"[6]; dose response, FIG. 6 panel B",inhibits SPP1 (osteopontin) gene expression in a dose-dependent manner
